Data on 1 molecule can be found in paper PMC7794297.

For one assay, the target named is glucose oxidase (GOx) (Aspergillus niger, UniProt P13006). Briefly: Glucose oxidase-directed DCL of building blocks 1-4. On the set-up: purchased Sigma Aldrich; unit not given here. The conditions noted are these: blank vs GOx template DCL; GOx 57 μM, Secox 5% mol, 24 h. The protocol: The equilibration of the DCL was completed after 24 h (Fig. 9) and the oligomers were identified by HPLC-MS (Supplementary Figs. 4–20). The precise composition of the DCL (with and without GOx), was assessed by measuring the relative peak area (RPA). The normalized change of RPA was used to quantify the protein influence in the final DCL showing the amplification of the dimer of compound 4, that is (4)2 (Fig. 9b). Control experiments were set up to verify that the amplification of the dimer was not due to unspecific binding. Firstly the GOx was replaced by the bovine serum albumin (BSA). A stability study of BSA under the DCL conditions was performed using a fluorescence technique confirming the BSA stability in the DCL experiment (Supplementary Fig. 48)[50].
Chain of glucose oxidase (GOx) (P13006 17-605): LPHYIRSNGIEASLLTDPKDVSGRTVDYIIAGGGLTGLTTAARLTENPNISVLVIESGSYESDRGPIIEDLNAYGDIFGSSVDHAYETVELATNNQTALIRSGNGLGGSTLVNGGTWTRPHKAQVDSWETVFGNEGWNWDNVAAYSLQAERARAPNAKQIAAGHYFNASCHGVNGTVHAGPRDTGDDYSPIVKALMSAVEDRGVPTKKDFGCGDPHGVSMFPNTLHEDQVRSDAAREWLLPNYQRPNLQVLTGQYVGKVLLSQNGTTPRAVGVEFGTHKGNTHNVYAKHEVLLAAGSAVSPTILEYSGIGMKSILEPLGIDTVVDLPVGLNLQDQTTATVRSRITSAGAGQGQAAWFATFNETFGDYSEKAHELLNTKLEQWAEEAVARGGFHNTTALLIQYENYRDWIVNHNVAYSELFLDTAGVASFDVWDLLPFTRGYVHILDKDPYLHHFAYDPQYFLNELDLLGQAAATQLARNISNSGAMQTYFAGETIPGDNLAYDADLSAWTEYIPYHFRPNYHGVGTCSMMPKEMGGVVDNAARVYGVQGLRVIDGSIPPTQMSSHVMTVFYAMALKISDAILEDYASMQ
The DCL was stabilized for 24 h at 6 °C. Then, GOx was removed by ultracentrifugation through an Amicon ultra-filter (100 KDa). HPLC analysis was performed.

Assay [1] can be described thus: NADPH-templated DCL of building blocks 1-4.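 Note: values are means ± SD of DCC experiments run in triplicate.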

As to `c1ccc(SSc2ccccc2)cc1` [(4)2], the “NC of RPA” value on glucose oxidase (GOx) is 39,73. Also, the “Normalized Change of RPA (NC)” value in assay [1] (0% Secox) and in assay [1] (5% Secox) was -1,00 in each case.
